What follows are compounds tested on patients having an ocular pain symptom (assay: Number of eye blinks after intraocular administration of selective COX2 inhibitors to ocular pain patients). Details: control group = Diclofenac.
Type: in vivo, human

First: Cc1cnc(NC(=O)C2=C(O)c3ccccc3S(=O)(=O)N2C)s1 [Meloxicam]
Second: CS(=O)(=O)Nc1ccc([N+](=O)[O-])cc1Oc1ccccc1 [Nimesulud]
The “Number of eye blinks of treated group (n = 3)” value of the first is higher: 20 for the first, 16 for the second.

For `CCN1CC/C(=C\c2cc(C(C)(C)C)c(O)c(C(C)(C)C)c2)S1(=O)=O` [S-2474, 3,5-di-tert-buryl-4-hydroxybenzylidene], the “Number of eye blinks of treated group (n = 3)” value was 15.

The compounds below were run on patients having an ocular pain symptom (assay: Number of eye blinks after intraocular administration of PGE2 synthesis inhibitors to eye pain patients). Details: blinks for 5 min.
Type: in vivo, human
Experimental: PGE2 synthesis inhibitors were administered intraocularly to patients having an ocular pain symptom, and whether the number of eye blinks of the patient group was reduced compared to that of a control group was examined. The PGE2 synthesis inhibitors used were 15-deoxy-Δ^12,14-PGJ2, exisulind, NS-398, leukotriene C4, mk-886, analogues of MK-886, MF63, thienopyrrole, naphthalene disulphonamide, resveratrol, and γ-hydroxybutenolide.
As a result, it was shown that, when the PGE synthesis inhibitors were administered intraocularly, they reduced ocular discomfort to thereby reduce the number of eye blinks (Table 2).

Going from `CCCCC/C=C/C=C1/C(=O)C=C[C@@H]1C/C=C\CCCC(=O)O` [15-deoxy-Δ^12,14-PGJ2] to `CCCCC/C=C\C\C=C/C=C/C=C/[C@@H](SC[C@H](NC(=O)CC[C@H](N)C(=O)O)C(=O)NCC(=O)O)[C@@H](O)CCCC(=O)O` [Leukotriene C4], the “Number of eye blinks of treated group (n = 10) for 5 min” value (from here on “Number of eye blinks … for 5 min”) rises from 11 to 17.

First: CC1=C(CC(=O)O)c2cc(F)ccc2/C1=C\c1ccc(S(C)(=O)=O)cc1 [Exisulind]
Second: Oc1ccc(C=Cc2cc(O)cc(O)c2)cc1 [Resveratrol]
The “Number of eye blinks … for 5 min” value of the first is lower: 14 for the first, 17 for the second.

`CS(=O)(=O)Nc1ccc([N+](=O)[O-])cc1OC1CCCCC1` [NS-398] and `c1cc2sccc2[nH]1` [Thienopyrrole] are the same in “Number of eye blinks … for 5 min” value: 13 for the first, 13 for the second.

`CC(C)c1ccc2c(c1)c(SC(C)(C)C)c(CC(C)(C)C(=O)O)n2Cc1ccc(Cl)cc1` [mk-886] was tested, and the “Number of eye blinks … for 5 min” value was 15.
